Assays:
Assay type in all cases: cell-based
[1] = tested on: K-562 (leukemia); test: NCI-60 SRB cytotoxicity screen
[2] = tested on: BT-549 (breast cancer); test: NCI-60 SRB cytotoxicity screen
[3] = tested on: MCF7 (breast cancer); test: NCI-60 SRB cytotoxicity screen
[4] = tested on: HOP-62 (non-small cell lung cancer); test: NCI-60 SRB cytotoxicity screen
[5] = tested on: SK-MEL-5 (melanoma); test: NCI-60 SRB cytotoxicity screen
[6] = tested on: COLO 205 (colon cancer); test: NCI-60 SRB cytotoxicity screen
[7] = tested on: HCC-2998 (colon cancer); test: NCI-60 SRB cytotoxicity screen
[8] = tested on: SF-268 (CNS cancer); test: NCI-60 SRB cytotoxicity screen
[9] = tested on: T-47D (breast cancer); test: NCI-60 SRB cytotoxicity screen
[10] = tested on: RXF 393 (renal cancer); test: NCI-60 SRB cytotoxicity screen
[11] = tested on: HL-60(TB) (leukemia); test: NCI-60 SRB cytotoxicity screen
[12] = tested on: OVCAR-3 (ovarian cancer); test: NCI-60 SRB cytotoxicity screen
[13] = tested on: KM12 (colon cancer); test: NCI-60 SRB cytotoxicity screen
[14] = tested on: RPMI-8226 (leukemia); test: NCI-60 SRB cytotoxicity screen
[15] = tested on: IGROV1 (ovarian cancer); test: NCI-60 SRB cytotoxicity screen
[16] = tested on: DU-145 (prostate cancer); test: NCI-60 SRB cytotoxicity screen
[17] = tested on: SNB-19 (CNS cancer); test: NCI-60 SRB cytotoxicity screen
[18] = tested on: HCT-116 (colon cancer); test: NCI-60 SRB cytotoxicity screen
[19] = tested on: UACC-62 (melanoma); test: NCI-60 SRB cytotoxicity screen
[20] = tested on: 60 cancer cell lines (NCI); test: NCI-60 single-dose screen, overall verdict over the panel; conditions: single dose 10 μM, whole panel
Summary of the method: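 Compounds were tested at a single 10^−5 M dose across the NCI 60 cell line panel, with cells preincubated 24 h before treatment. Viability was measured by TCA fixation and sulforhodamine B staining, absorbance 540 nm. % cytotoxicity = [1 − (sample/negative control absorbance)] × 100.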

[21] = tested on: SR (leukemia); test: NCI-60 SRB cytotoxicity screen
[22] = tested on: SK-MEL-28 (melanoma); test: NCI-60 SRB cytotoxicity screen
[23] = tested on: NCI-H23 (non-small cell lung cancer); test: NCI-60 SRB cytotoxicity screen
[24] = tested on: NCI-H522 (non-small cell lung cancer); test: NCI-60 SRB cytotoxicity screen
[25] = tested on: HS 578T (breast cancer); test: NCI-60 SRB cytotoxicity screen
[26] = tested on: MDA-MB-468 (breast cancer); test: NCI-60 SRB cytotoxicity screen
Summary of the method: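 NCI-60 single-dose (10^−5 M) screen in MDA-MB-468 with SRB protein-stain read-out after 48 h exposure; cells TCA-fixed and absorbance read at 540 nm. Reported as GI%, with compounds meeting NCI activity criteria then run at five doses (0.01–100 μM).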

[27] = Homo sapiens, BT-549, five-dose assay
[28] = Homo sapiens, HOP-62, five-dose assay
[29] = Homo sapiens, SK-MEL-5, five-dose assay
[30] = Homo sapiens, COLO 205, five-dose assay
[31] = Homo sapiens, HCC-2998, five-dose assay
[32] = Homo sapiens, RXF 393, five-dose assay
[33] = Homo sapiens, single dose 10 μM, read-out: growth inhibition (GI%)
[34] = Homo sapiens, OVCAR-3, five-dose assay
[35] = Homo sapiens, SNB-19, five-dose assay
[36] = Homo sapiens, HCT-116, five-dose assay
[37] = Homo sapiens, SK-MEL-28, five-dose assay
[38] = Homo sapiens, NCI-H23, five-dose assay
[39] = Homo sapiens, NCI-H522, five-dose assay
[40] = Homo sapiens, MDA-MB-468, five-dose assay

CCc1cccc2cc(-c3cc(-c4cc(OC)c(OC)c(OC)c4)[nH]c(=O)c3C#N)c(Cl)nc12 [Compound 4c, 4-(2-Chloro-8-ethylquinolin-3-yl)-2-oxo-6-(3,4,5-trimethoxyphenyl)-1,2-dihydropyridine-3-carbonitrile]
GI50 ([1]; Homo sapiens, K562, K-562, five-dose assay): 7.72 µM | CC50 ([1]; Homo sapiens, K562, K-562, five-dose assay, read-out: LC50 (the source's name)): > 100 µM | inhibition at 10 µM ([1]; Homo sapiens, K-652 [sic], single dose 10 μM, read-out: growth inhibition (GI%)): 31.4% | TGI ([1]; K-562, five-dose assay): 43.80 µM | TGI ([2]; BT-549, five-dose assay): 28.10 µM | GI50 [2, 27]: 4.11 µM | LC50 [2, 27]: > 100 µM | inhibition at 10 µM ([2]; Homo sapiens, BT-549, single dose 10 μM, read-out: growth inhibition (GI%)): 57.5% | GI50 ([3]; Homo sapiens, MCF7, five-dose assay): 24 µM | CC50 ([3]; Homo sapiens, MCF7, five-dose assay, read-out: LC50 (the source's name)): > 100 µM | inhibition at 10 µM ([3]; Homo sapiens, MCF7, single dose 10 μM, read-out: growth inhibition (GI%)): 54.8% | TGI ([3]; MCF7, five-dose assay): >100 µM | TGI ([4]; HOP-62, five-dose assay): 78.90 µM | GI50 [4, 28]: 20.7 µM | LC50 [4, 28]: > 100 µM | inhibition at 10 µM ([4]; Homo sapiens, HOP-62, single dose 10 μM, read-out: growth inhibition (GI%)): 87.9% | GI50 [5, 29]: 17.5 µM | LC50 [5, 29]: > 100 µM | inhibition at 10 µM ([5]; Homo sapiens, SK-MEL-5, single dose 10 μM, read-out: growth inhibition (GI%)): 78.6% | TGI ([5]; SK-MEL-5, five-dose assay): 90.20 µM | TGI ([6]; COLO 205, five-dose assay): >100 µM | GI50 [6, 30]: 45.6 µM | LC50 [6, 30]: > 100 µM | inhibition at 10 µM ([6]; Homo sapiens, COLO 205, single dose 10 μM, read-out: growth inhibition (GI%)): < 10% | TGI ([7]; HCC-2998, five-dose assay): >100 µM | GI50 [7, 31]: 35.7 µM | LC50 (50% lethal concentration) [7, 31]: > 100 µM | inhibition at 10 µM ([7]; Homo sapiens, HCC-2998, single dose 10 μM, read-out: growth inhibition (GI%)): 47% | GI50 ([8]; Homo sapiens, SF-268, five-dose assay): 13.8 µM | CC50 ([8]; Homo sapiens, SF-268, five-dose assay, read-out: LC50 (the source's name)): > 100 µM | inhibition at 10 µM ([8]; Homo sapiens, SF-268, single dose 10 μM, read-out: growth inhibition (GI%)): 34.4% | TGI ([8]; SF-268, five-dose assay): >100 µM | GI50 ([9]; Homo sapiens, T47D, five-dose assay): 12.2 µM | CC50 ([9]; Homo sapiens, T47D, five-dose assay, read-out: LC50 (the source's name)): > 100 µM | inhibition at 10 µM ([9]; Homo sapiens, T47D, single dose 10 μM, read-out: growth inhibition (GI%)): 91.6% | TGI ([9]; five-dose assay): 64.10 µM | GI50 [10, 32]: 2.21 µM | LC50 [10, 32]: 35.4 µM | inhibition at 10 µM ([10]; Homo sapiens, RXF 393, single dose 10 μM, read-out: growth inhibition (GI%)): > 100% | TGI ([10]; RXF 393, five-dose assay): 6.69 µM | growth inhibition (GI%) ([10]; RXF 393, single dose 10 μM): lethal effect | GI50 ([11]; Homo sapiens, five-dose assay): 13.4 µM | LC50 ([11]; Homo sapiens, five-dose assay): > 100 µM | inhibition at 10 µM [11, 33]: 71.3% | TGI ([11]; five-dose assay): >100 µM | GI50 [12, 34]: 14.2 µM | LC50 (50% lethal concentration) [12, 34]: 62.3 µM | inhibition at 10 µM ([12]; Homo sapiens, OVCAR-3, single dose 10 μM, read-out: growth inhibition (GI%)): > 100% | TGI ([12]; OVCAR-3, five-dose assay): 29.80 µM | growth inhibition (GI%) ([12]; OVCAR-3, single dose 10 μM): lethal effect | GI50 ([13]; Homo sapiens, KM12, five-dose assay): 33.6 µM | CC50 ([13]; Homo sapiens, KM12, five-dose assay, read-out: LC50 (the source's name)): > 100 µM | inhibition at 10 µM ([13]; Homo sapiens, KM12, single dose 10 μM, read-out: growth inhibition (GI%)): 55.1% | TGI ([13]; KM12, five-dose assay): >100 µM | GI50 ([14]; Homo sapiens, RPMI-8226, five-dose assay): 5.16 µM | CC50 ([14]; Homo sapiens, RPMI-8226, five-dose assay, read-out: LC50 (the source's name)): > 100 µM | inhibition at 10 µM ([14]; Homo sapiens, RPMI-8226, single dose 10 μM, read-out: growth inhibition (GI%)): 74.5% | TGI ([14]; RPMI-8226, five-dose assay): >100 µM | GI50 ([15]; Homo sapiens, IGROV-1, IGROV1, five-dose assay): 12.2 µM | CC50 ([15]; Homo sapiens, IGROV-1, IGROV1, five-dose assay, read-out: LC50 (the source's name)): > 100 µM | inhibition at 10 µM ([15]; Homo sapiens, IGROV-1, IGROV1, single dose 10 μM, read-out: growth inhibition (GI%)): 66.3% | TGI ([15]; IGROV1, five-dose assay): 46.30 µM | TGI ([16]; DU-145, five-dose assay): 38.00 µM | GI50 ([16]; Homo sapiens, DU-145, five-dose assay): 15.5 µM | CC50 ([16]; Homo sapiens, DU-145, five-dose assay, read-out: LC50 (the source's name)): 93.5 µM | inhibition at 10 µM ([16]; Homo sapiens, DU-145, single dose 10 μM, read-out: growth inhibition (GI%)): 80.5% | GI50 [17, 35]: 9.25 µM | LC50 (50% lethal concentration) [17, 35]: > 100 µM | inhibition at 10 µM ([17]; Homo sapiens, SNB-19, single dose 10 μM, read-out: growth inhibition (GI%)): 89.6% | TGI ([17]; SNB-19, five-dose assay): 50.90 µM | TGI ([18]; HCT-116, five-dose assay): 33.30 µM | GI50 [18, 36]: 14.1 µM | LC50 [18, 36]: 78.4 µM | inhibition at 10 µM ([18]; Homo sapiens, HCT-116, single dose 10 μM, read-out: growth inhibition (GI%)): 69.1% | GI50 ([19]; Homo sapiens, UACC-62, five-dose assay): 17.5 µM | CC50 ([19]; Homo sapiens, UACC-62, five-dose assay, read-out: LC50 (the source's name)): > 100 µM | inhibition at 10 µM ([19]; Homo sapiens, UACC-62, single dose 10 μM, read-out: growth inhibition (GI%)): > 100% | TGI ([19]; UACC-62, five-dose assay): 60.10 µM | growth inhibition (GI%) ([19]; UACC-62, single dose 10 μM): lethal effect | cytotoxic activity over the cell lines (in words) [20]: highest level of cytotoxic activity | GI50 ([21]; five-dose assay): 5.7 µM | LC50 ([21]; five-dose assay): > 100 µM | TGI ([21]; five-dose assay): >100 µM | inhibition at 10 µM ([21]; single dose 10 μM, read-out: growth inhibition (GI%)): 77.3% | GI50 [22, 37]: 21.1 µM | LC50 (concentration causing 50% net cell kill) [22, 37]: > 100 µM | inhibition at 10 µM ([22]; Homo sapiens, SK-MEL-28, single dose 10 μM, read-out: growth inhibition (GI%)): 68.9% | TGI ([22]; SK-MEL-28, five-dose assay): >100 µM | GI50 [23, 38]: 3.2 µM | LC50 (concentration killing 50% of cells) [23, 38]: > 100 µM | inhibition at 10 µM ([23]; Homo sapiens, NCI-H23, single dose 10 μM, read-out: growth inhibition (GI%)): 68.6% | TGI ([23]; NCI-H23, five-dose assay): >100 µM | GI50 [24, 39]: 19.1 µM | LC50 (concentration causing 50% net cell kill) [24, 39]: > 100 µM | inhibition at 10 µM ([24]; Homo sapiens, NCI-H522, single dose 10 μM, read-out: growth inhibition (GI%)): > 100% | TGI ([24]; NCI-H522, five-dose assay): >100 µM | growth inhibition (GI%) ([24]; NCI-H522, single dose 10 μM): lethal effect | GI50 ([25]; Homo sapiens, five-dose assay): 2.38 µM | LC50 (50% lethal concentration) ([25]; Homo sapiens, five-dose assay): > 100 µM | inhibition at 10 µM [25, 33]: > 100% | TGI ([25]; five-dose assay): 7.26 µM | growth inhibition (GI%) ([25]; single dose 10 μM): lethal effect | GI50 [26, 40]: 12.7 µM | LC50 (concentration killing 50% of cells) [26, 40]: > 100 µM | inhibition at 10 µM ([26]; Homo sapiens, MDA-MB-468, single dose 10 μM, read-out: growth inhibition (GI%)): 51.9% | TGI ([26]; MDA-MB-468, five-dose assay): 61.60 µM
